# Results: ChEMBL document CHEMBL3886529, “PDE10a inhibitors for the treatment of type II diabetes” (2016)
# Biological target: T1, cAMP and cAMP-inhibited cGMP 3',5'-cyclic phosphodiesterase 10A (Rattus norvegicus, UniProt Q9QYJ6)
# T1 sequence (Q9QYJ6 whole entry): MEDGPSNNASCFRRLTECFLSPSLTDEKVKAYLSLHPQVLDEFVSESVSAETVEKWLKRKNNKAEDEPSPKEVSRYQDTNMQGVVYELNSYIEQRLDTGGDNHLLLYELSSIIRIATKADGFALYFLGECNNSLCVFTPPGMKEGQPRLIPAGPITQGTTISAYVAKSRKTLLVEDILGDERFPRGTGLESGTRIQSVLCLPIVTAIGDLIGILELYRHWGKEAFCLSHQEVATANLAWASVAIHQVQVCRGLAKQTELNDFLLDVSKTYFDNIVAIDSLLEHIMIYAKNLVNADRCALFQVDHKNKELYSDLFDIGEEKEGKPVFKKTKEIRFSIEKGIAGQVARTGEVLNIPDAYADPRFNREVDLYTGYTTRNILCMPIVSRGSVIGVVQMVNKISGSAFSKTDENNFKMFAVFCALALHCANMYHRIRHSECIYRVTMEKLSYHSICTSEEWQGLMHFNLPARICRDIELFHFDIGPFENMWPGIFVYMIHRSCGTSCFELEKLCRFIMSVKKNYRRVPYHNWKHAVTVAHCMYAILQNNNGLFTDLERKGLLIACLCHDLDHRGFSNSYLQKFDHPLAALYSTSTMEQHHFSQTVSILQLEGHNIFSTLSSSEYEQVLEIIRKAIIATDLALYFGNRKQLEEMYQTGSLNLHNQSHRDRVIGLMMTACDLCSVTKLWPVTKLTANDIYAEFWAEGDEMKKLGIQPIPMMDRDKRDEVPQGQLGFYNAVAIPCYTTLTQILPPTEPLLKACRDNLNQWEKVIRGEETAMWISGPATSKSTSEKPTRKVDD
# Assay: In Vitro Assay rPDE10: Rat recombinant PDE10a (rPDE10a) was expressed in Sf9 cells using a recombinant rPDE10a baculovirus construct. Cells were harvested after 48 h of infection and the rPDE10a protein was purified by metal chelate chromatography on Ni-sepharose 6FF. Tested compounds were dissolved and diluted in 100% DMSO to a concentration 100 fold of the final concentration in the assay. Compound dilutions (0.4 uL) were added in 384 well plates to 20 uL of incubation buffer (50 mM Tris pH 7.8, 8.3 mM MgCl2, 1.7 mM EGTA). 10 uL of rPDE10a enzyme in incubation buffer was added and the reaction was started by addition of 10 uL substrate to a final concentration of 60 nM cAMP and 0.008 uCi 3H-cAMP. The reaction was incubated for 60 min at rt. After incubation, the reaction was stopped with 20 uL of 17.8 mg/mL PDE SPA beads. After sedimentation of the beads during 30 min the radioactivity was measured in a Perkin Elmer Topcount scintillation counter and results were expressed as cpm. For blank values the enz
row,SMILES,IC50
1,c1ccc2nc(OCc3cn4c(C5CCNCC5)cnc(N5CCOCC5)c4n3)ccc2c1,562 nM
2,O=C(O)c1cc(/C=C/c2cn3ccnc(N4CCOCC4)c3n2)nc2ccccc12,9 nM
3,O=C1Nc2ccc(-c3cnc(N4CCOCC4)c4nc(CCc5ccc6ccccc6n5)cn34)cc2C1(F)F,19 nM
